# Patent US10570179B2, “Substituted urea depsipeptide analogs as activators of the CLPP endopeptidase” (priority 2016, dated 2020)
# Numbered stars: 1 amine (or outer) side, 2 acyl side, 3 side chain; on linkers, the order of the positions; unused ones are H or OH. Bridge positions count the residues as written; N and C are the ends. Square brackets hold non-standard residues; d marks the D form. Peptide text beside a SMILES is read from it. * marks the point of attachment. ξ: configuration not given here. Piperazine(2S-CO,4-Me) = CN1CCN[C@H](C(=O)O)C1; Phe(3-Me) = Cc1cccc(C[C@H](N)C(=O)O)c1; NH(4-Cl-2-F-phenyl) = Fc1cc(Cl)ccc1N*; Pro(4R-Me) = C[C@H]1CN[C@H](C(=O)O)C1; Hyp = O=C(O)[C@@H]1C[C@@H](O)CN1; ξNMeThr = CNC(C(=O)O)[C@@H](C)O; aThr = C[C@H](O)[C@H](N)C(=O)O; CO = O=C([*:1])[*:2]; X2 = Fc1cc(N*)ccc1Cl
# Columns and labels:
# S. aureus ATCC 29213 = experiment: Minimal inhibitory concentration, microbroth dilution; format: cell-based; details: Staphylococcus aureus, ATCC29213; MIC; read-out: Minimal Inhibitory Concentrations (μM) S. aureus ATCC 29213
# Method in brief: (§1)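 Susceptibility testing used the CLSI dilution standard, with bacteria at ~10^5 cfu/mL exposed to a two-fold compound series beginning at 200 μM final. The endpoint is the lowest concentration showing no growth after overnight incubation (37 °C, aerobic).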
# E. faecails = experiment: as above; format: cell-based; details: Enterococcus faecalis; MIC; read-out: Minimal Inhibitory Concentrations (μM) E. faecails
# Method in brief: as §1
# S. aureus USA 300 = experiment: as above; format: cell-based; details: Staphylococcus aureus, USA300; MIC; read-out: Minimal Inhibitory Concentrations (μM) S. aureus USA 300
# Method in brief: as §1
# MRSA NRS70 = experiment: as above; format: cell-based; details: Staphylococcus aureus; MIC; read-out: Minimal Inhibitory Concentrations (μM) MRSA NRS70
# Method in brief: as §1
# Plasma stability assay = format: in vitro ADME, mouse; details: mouse, 10 μM
# Protocol: The plasma stability property of early drug discovery compounds can influence the in vivo efficacy of the test compounds/drugs. Human and/or mouse plasma degradation is determined using multiple time points to monitor the rate of disappearance of the parent compound during incubation.
# Sample preparation for plasma stability was modified from Di et al. (2005) Int. J. Pharm. 297(1-2): 110-119. A set of incubation times of 0, 3, 24, and 48 hour were used. DMSO stock solutions of test compounds were prepared at 10 mM concentration. 1.8 μL of each test compound was each added directly to 1.8 mL of human/mouse plasma to get the final concentration of 10 μM. This compound/matrix was mixed and 70 μL was transferred to 8 time points plates (each in triplicate wells). For the Time 0 plate, 210 μL of cold acetonitrile with internal standard (4 μg/mL warfarin) was added to each well and no incubation needed. For other seven time points' plate, the plate was incubated at 37° C. for required time, followed by quenching of the reaction by adding 210 μL of cold acetonitrile with internal standard (4 μg/ml warfarin) to each well. All of the plates were sealed and mixed well at 600 rpm for 10 min and were centrifuged at 4000 rpm for 20 min. The supernatants (120 μL) were transferred to analytical plates for analysis by LCMS. Conditions for Waters ACQUITY-UPLC-MS-UV system was described separately. The plasma stability was evaluated via the half-life from least-squares fit of the multiple time points based on first-order kinetics.
# S. aureus ClpP (Sa-ClpP) = molecular target: T1, S. aureus ClpP (Sa-ClpP) (Staphylococcus aureus, UniProt Q2G036); experiment: Casein-BODIPY digestion assay (ClpP activation); format: biochemical
# T1 construct: made in house; host or cells: E. coli BL21 (DE3)
# T1 sequence (Q2G036 whole entry): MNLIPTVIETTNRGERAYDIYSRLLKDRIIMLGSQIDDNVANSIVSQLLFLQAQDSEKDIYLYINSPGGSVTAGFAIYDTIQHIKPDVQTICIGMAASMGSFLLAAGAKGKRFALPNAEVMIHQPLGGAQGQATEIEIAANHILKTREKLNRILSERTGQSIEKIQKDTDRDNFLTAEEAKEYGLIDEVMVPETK
Compound,MIC (S. aureus ATCC 29213),MIC (E. faecails),MIC (S. aureus USA 300),MIC (MRSA NRS70),Mouse (Plasma stability assay),EC50 (S. aureus ClpP (Sa-ClpP))
"Cc1cccc(C[C@H](NC(=O)Nc2ccc3c(c2)OCCO3)C(=O)N[C@H]2COC(=O)[C@@H]3C[C@@H](C)CN3C(=O)[C@H](C)NC(=O)[C@@H]3CCCCN3C(=O)[C@@H]3CCCN3C2=O)c1 [Compound 22, (S)-2-(3-(2,3-DIHYDROBENZO[B][1,4]DIOXIN-6-YL)UREIDO)-N-((2R,6S,8AS,14AS,20S,23AS)-2,6-DIMETHYL-5,8,14,19,23-PENTAOXOOCTADECAHYDRO-1H,5H,14H,19H-PYRIDO[2,1-I]DIPYRROLO[2,1-C:2′,1′-L][1]OXA[4,7,10,13]TETRAAZACYCLOHEXADECIN-20-YL)-3-(M-TOLYL)PROPANAMIDE]",5 µM,1.25 µM,5 µM,1.25 µM,46.15 h,650 ± 60 nM
"Cc1cccc(C[C@H](NC(=O)Nc2ccc(Cl)cc2F)C(=O)N[C@@H]2C(=O)N3C[C@H](O)C[C@H]3C(=O)N3CCN(C)C[C@H]3C(=O)N[C@@H](C)C(=O)N3C[C@H](C)C[C@H]3C(=O)O[C@H]2C)c1 [Compound 31, (S)-2-(3-(4-CHLORO-2-FLUOROPHENYL)UREIDO)-N-((6AS,8R,12S,13S,15AS,17R,21S,23AS)-8-HYDROXY-2,13,17,21-TETRAMETHYL-6,11,15,20,23-PENTAOXOOCTADECAHYDRO-2H,6H,11H,15H-PYRAZINO[2,1-I]DIPYRROLO[2,1-C:2′,1′-L][1]OXA[4,7,10,13]TETRAAZACYCLOHEXADECIN-12-YL)-3-(M-TOLYL)PROPANAMIDE] ({NH(4-Cl-2-F-phenyl)-CO}-[Phe(3-Me)][aThr][Hyp][Piperazine(2S-CO,4-Me)]A[Pro(4R-Me)]; ester 2-C)",< 0.02 µM,< 0.02 µM,0.078 µM,< 0.02 µM,>50 h,180 ± 180 nM
"Cc1cccc(C[C@H](NC(=O)Nc2ccc(Cl)c(F)c2)C(=O)N[C@H]2COC(=O)[C@@H]3C[C@@H](C)CN3C(=O)[C@H](C)NC(=O)[C@@H]3CN(C)CCN3C(=O)[C@@H]3CCCN3C2=O)c1 [Compound 14, (S)-2-(3-(4-CHLORO-3-FLUOROPHENYL)UREIDO)-3-(M-TOLYL)-N-((6AS,12S,15AS,17R,21S,23AS)-2,17,21-TRIMETHYL-6,11,15,20,23-PENTAOXOOCTADECAHYDRO-2H,6H,11H,15H-PYRAZINO[2,1-I]DIPYRROLO[2,1-C:2′,1′-L][1]OXA[4,7,10,13]TETRAAZACYCLOHEXADECIN-12-YL)PROPANAMIDE] ({X2-CO}-[Phe(3-Me)]SP[Piperazine(2S-CO,4-Me)]A[Pro(4R-Me)]; ester 2-C)",5 µM,1.25 µM,5 µM,2.5 µM,9.55 ± 0.8 h,1410 ± 200 nM
Cc1cccc(C[C@H](NC(=O)Nc2ccc(Cl)cc2F)C(=O)N[C@@H]2C(=O)N3CCC[C@H]3C(=O)N(C)C([C@@H](C)O)C(=O)N[C@@H](C)C(=O)N3C[C@H](C)C[C@H]3C(=O)O[C@H]2C)c1 (stereo partly drawn) [Compound 5] ({NH(4-Cl-2-F-phenyl)-CO}-[Phe(3-Me)][aThr]P[ξNMeThr]A[Pro(4R-Me)]; ester 2-C),0.078 µM,0.156 µM,0.078 µM,0.078 µM,>50 h,320 ± 20 nM
